Measured values reported in patent publication US4005084A, “Thienylmethyl phenoxy morpholine compounds” (Yoshitomi Pharmaceutical Industries, Ltd., priority 1975, dated 1977).
Read-outs that look alike come from different tables or passages of the source.

Columns and labels:
gastric secretion = assay: Inhibitory activity on gastric secretion in rats; format: in vivo, Wistar rats (male); conditions: Rattus norvegicus, sc, read-out: Inhibitory activity on gastric secretion, ED50
Procedure: After fasting for 48 hours, the stomach of male Wistar rats weighing about 200 g were ligated at the pylorus under light ether anesthesia as described by Shay et al. in the Gastroenterology, vol. 5, pp. 43-61 (1945). Immediately after this ligation, test compound was given subcutaneously. Four hours later, the gastric juice in the stomach was collected and centrifuged for each rat and expressed as ml per 100 g of body weight.
The ED50 was calculated in the same manner as Test (I) on Shay ulcer.

Shay ulcer = assay: Inhibitory activity on Shay ulcer in rats; format: in vivo, Wistar rats (female); conditions: Rattus norvegicus, sc, read-out: Inhibitory activity on Shay ulcer, ED50
Procedure: Female Wistar rats (140-180 g) were fasted for 44 hours but allowed free access to ater after which the pylorus was ligated as described by Shay et al. in the Gastroenterology, vol. […] Immediately after this ligation, test compound was given subcutaneously. Ten hours later, the animals were sacrificed by an overdose of ether, the stomach was removed and examined for lesions. The logarithm of the sum of each damaged area per rat was referred to as the ulcer index.
The Per Cent Inhibition was calculated as follows: [formula]
The ED50 was read from the semilogarithmic graph on which the Per Cent Inhibition was plotted vs. mg/kg dose.

gastric motility = assay: Inhibitory activity on gastric motility under stress in rats; format: in vivo, Wistar rats (male); conditions: Rattus norvegicus, read-out: Inhibitory activity on gastric motility, ED50
Procedure: The procedure described by K. Watanabe in the Chemical & Pharmaceutical Bulletin, vol.
Male Wistar rats weighing about 250 g were used. After fasting for 18 hours, rats were fixed on their backs by the limbs with thread on boads and immersed into water to the depth of the xiphoid cartilage. Temperature of water was kept at 22° C.
Pressure change in small rubber balloon fixed in the grandular stomach was recorded with pressure transducer (Nihon Koden Kogyo Co., Ltd., MP-4T). The balloon was inserted from the forestomach under light ether anesthesia. Initial pressure was kept at the height of 10 mmHg.
When the effect of anesthesia and of the operation diminished, test compound was administered into the stomach through the polyethylene tube which was previously inserted into the stomach with the balloon.

[1] = target: T1, acetylcholine (contracting action of the guinea pig intestine) (Cavia porcellus); assay: Acetylcholine antagonistic activity on contraction of guinea pig intestine; conditions: negative log10 of molar concentration reducing effect of a double dose of acetylcholine to that of a single dose, read-out: Acetylcholine antagonistic activity, pA2 (converted)
T1 construct: contracting action of the guinea pig intestine; from tissue; host or cells: guinea pig intestine
Procedure: Acetylcholine antagonistic activity was tested according to the method described by J. M. Van Rossum et al. in the Archives Internationales de Pharmacodynamie et de Therapie, vol. 143, pp. 240-246 and pp. 299-330 (1963). The pA2 is the negative of the logarithm, to the base 10, of the molar concentration of the test compound which reduced the effect of a double dose of acetylcholine on contracting action of the guinea pig intestine compared with that of a single dose.

T1 sequence (H0W1Z3 1-590): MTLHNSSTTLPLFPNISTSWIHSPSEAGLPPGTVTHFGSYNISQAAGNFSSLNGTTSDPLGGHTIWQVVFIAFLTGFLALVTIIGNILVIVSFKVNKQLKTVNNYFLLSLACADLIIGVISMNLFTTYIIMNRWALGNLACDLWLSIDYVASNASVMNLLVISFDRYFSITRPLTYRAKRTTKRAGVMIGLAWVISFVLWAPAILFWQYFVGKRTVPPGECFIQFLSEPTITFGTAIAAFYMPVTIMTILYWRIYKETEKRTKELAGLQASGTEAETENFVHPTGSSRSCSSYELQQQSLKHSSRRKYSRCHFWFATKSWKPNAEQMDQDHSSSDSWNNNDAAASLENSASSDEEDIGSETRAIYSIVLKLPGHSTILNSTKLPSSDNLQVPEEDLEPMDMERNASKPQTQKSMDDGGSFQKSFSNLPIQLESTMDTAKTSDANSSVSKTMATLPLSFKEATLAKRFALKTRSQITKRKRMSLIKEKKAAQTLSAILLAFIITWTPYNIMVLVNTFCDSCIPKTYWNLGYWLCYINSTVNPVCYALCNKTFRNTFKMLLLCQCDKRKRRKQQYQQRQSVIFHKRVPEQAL

SMILES	ED50 (gastric secretion; 4 h)	ED50 (Shay ulcer; 10 h)	ED50 (gastric motility)	Kb [1]	ED50 (gastric secretion; subcutaneous, immediately after pylorus ligation, gastric juice collected 4 hours later)	ED50 (Shay ulcer; subcutaneous, immediately after pylorus ligation, examined 10 hours later)	ED50 (gastric motility; administered into the stomach, stress by water immersion at 22° C)
CN1[C@@H]2CC[C@H]1C[C@@H](OC(=O)C(CO)c1ccccc1)C2 (stereo partly shown) [Atropine, reference compound]	0.12 mg/kg	0.5 mg/kg	≤ 3 mg/kg	–	–	–	–
O=C(O)/C=C\C(=O)O.c1csc(Cc2ccccc2OCC2CNCCO2)c1 (stereo not shown) [Compound A, 2-[2-(2-thenyl)phenoxymethyl]morpholine maleate]	–	–	–	6.31 µM	4.5 mg/kg	5.5 mg/kg	2.1 mg/kg
